Measurements: patent EP4417602A1, “SUBSTITUTED PYRAZOLE CARBOXAMIDES, SALTS THEREOF AND THEIR USE AS HERBICIDALLY ACTIVE SUBSTANCES” (Bayer AG, priority 2023, dated 2024)

What was measured:
[1] = system: STEME; assay: B. Herbicidal post-emergence action on harmful plants (Tables B); type: in vivo, Stellaria media; conditions: application rate 1280 g/ha; Table B6
Outline: (§1)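 Greenhouse weeds grown in sandy loam were sprayed post-emergence at the one-leaf stage, 2-3 weeks after sowing. Compounds were applied as WP or EC in water with 0.5% additive at 600 L/ha, at 1280 g/ha or below. Visual damage was rated after about 3 weeks versus untreated plants (0-100%).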

[2] = system: STEME; assay: A. Herbicidal pre-emergence action on harmful plants (Tables A); type: in vivo, Stellaria media; conditions: visual grading after ca. 3 weeks vs untreated controls, 100% = plants have died off, 0% = as control plants
Outline: (§2)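 Values are visual percent damage relative to untreated controls, scored ca. 3 weeks after the compound was sprayed on the covering soil of sown pots (sandy loam) at rates up to 1280 g/ha, formulated as WP or EC with 0.5% additive.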

[3] = system: VERPE; assay: B. Herbicidal post-emergence action on harmful plants (Tables B); type: in vivo, Veronica persica; conditions: application rate 1280 g/ha; Table B11a
Outline: as §1

[4] = system: POAAN; assay: A. Herbicidal pre-emergence action on harmful plants (Tables A); type: in vivo, Poa annua
Outline: as §2

[5] = system: DIGSA; assay: as above; type: in vivo, Digitaria sanguinalis; conditions: application rate 1280 g/ha; Table A12a
Outline: as §2

[6] = system: LOLRI; assay: B. Herbicidal post-emergence action on harmful plants (Tables B); type: in vivo, Lolium rigidum; conditions: application rate 1280 g/ha; Table B3
Protocol: Seeds of mono- and dicotyledonous weed plants were placed in plastic pots in sandy loam soil (doubly sown with in each case one species of mono- or dicotyledonous weed plants per pot), covered with soil and cultivated in a greenhouse under controlled growth conditions. 2 to 3 weeks after sowing, the test plants were treated at the one-leaf stage. The compounds of the invention, formulated in the form of wettable powders (WP) or as emulsion concentrates (EC), were applied onto the green parts of the plants as aqueous suspension or emulsion with addition of 0.5% additive at a water application rate of 600 liters per hectare (converted). After the test plants had been kept in the greenhouse under optimum growth conditions for about 3 weeks, the activity of the preparations was rated visually in comparison to untreated controls. For example, 100% activity = the plants have died, 0% activity = like control plants. Tables B1 to B12, below, show the effects of selected compounds of the general formula (I) according to table 1 on various harmful plants and an application rate corresponding to 1280 g/ha or below obtained by the experimental procedure mentioned above. Table B1a: post-emergence activity at 1280g/ha against ABUTH in %

[7] = system: MATIN; assay: as above; type: in vivo, Matricaria inodora
Outline: as §1

[8] = system: MATIN; assay: A. Herbicidal pre-emergence action on harmful plants (Tables A); type: in vivo, Matricaria inodora; conditions: visual grading after ca. 3 weeks vs untreated controls, 100% = plants have died off, 0% = as control plants
Outline: as §2

[9] = system: ALOMY; assay: as above; type: in vivo, Alopecurus myosuroides
Outline: as §2

[10] = system: ECHCG; assay: as above; type: in vivo, Echinochloa crus-galli; conditions: visual grading after ca. 3 weeks vs untreated controls, 100% = plants have died off, 0% = as control plants
Outline: as §2

[11] = system: LOLRI; assay: as above; type: in vivo, Lolium rigidum; conditions: visual grading after ca. 3 weeks vs untreated controls, 100% = plants have died off, 0% = as control plants
Outline: as §2

[12] = system: POAAN; assay: B. Herbicidal post-emergence action on harmful plants (Tables B); type: in vivo, Poa annua
Outline: as §1

[13] = system: SETVI; assay: A. Herbicidal pre-emergence action on harmful plants (Tables A); type: in vivo, Setaria viridis; conditions: visual grading after ca. 3 weeks vs untreated controls, 100% = plants have died off, 0% = as control plants
Outline: as §2

[14] = system: ECHCG; assay: B. Herbicidal post-emergence action on harmful plants (Tables B); type: in vivo, Echinochloa crus-galli; conditions: application rate 1280 g/ha; Table B2a
Outline: as §1

## COCc1nn(C)cc1C(=O)N1CCCC1Cc1ccccc1Br (racemic) [Example I-018]
[1]
  post-emergence activity against STEME: 90%
[2]; application rate 320 g/ha
  pre-emergence activity against STEME: 90%
[2]; application rate 1280 g/ha
  pre-emergence activity against STEME: 90%
[3]
  post-emergence activity against VERPE: 90%
[4]; application rate 80 g/ha, Table A7c
  pre-emergence activity against POAAN: 100%
[4]; application rate 320 g/ha, Table A7b
  pre-emergence activity against POAAN: 100%
[4]; application rate 1280 g/ha, visual grading after ca. 3 weeks vs untreated controls, 100% = plants have died off, 0% = as control plants
  pre-emergence activity against POAAN: 100%
[5]
  pre-emergence activity against DIGSA: 100%
[6]
  post-emergence activity against LOLRI: 90%
[7]; application rate 320 g/ha, Table B4b
  post-emergence activity against MATIN: 90%
[7]; application rate 1280 g/ha, Table B4a
  post-emergence activity against MATIN: 90%
[8]; application rate 80 g/ha
  pre-emergence activity against MATIN: 90%
[8]; application rate 320 g/ha
  pre-emergence activity against MATIN: 90%
[8]; application rate 1280 g/ha
  pre-emergence activity against MATIN: 90%
[9]; application rate 320 g/ha, Table A9b
  pre-emergence activity against ALOMY: 90%
[9]; application rate 1280 g/ha, Table A9a
  pre-emergence activity against ALOMY: 100%
[10]; application rate 80 g/ha
  pre-emergence activity against ECHCG: 90%
[10]; application rate 320 g/ha
  pre-emergence activity against ECHCG: 90%
[10]; application rate 1280 g/ha
  pre-emergence activity against ECHCG: 100%
[11]; application rate 80 g/ha
  pre-emergence activity against LOLRI: 90%
[11]; application rate 320 g/ha
  pre-emergence activity against LOLRI: 100%
[11]; application rate 1280 g/ha
  pre-emergence activity against LOLRI: 100%
[12]; application rate 320 g/ha, Table B7b
  post-emergence activity against POAAN: 90%
[12]; application rate 1280 g/ha, Table B7a
  post-emergence activity against POAAN: 90%
[13]; application rate 320 g/ha
  pre-emergence activity against SETVI: 100%
[13]; application rate 1280 g/ha
  pre-emergence activity against SETVI: 100%
[14]
  post-emergence activity against ECHCG: 90%
